From patent publication EP1146864B1, “PH INDEPENDENT EXTENDED RELEASE PHARMACEUTICAL FORMULATION” (ABBOTT LABORATORIES, priority 1999, dated 2000)

Tests used:
[1] = in children; cited from earlier work

Structure (SMILES) | solubility (physchem; pH 1, simulated gastric fluid) [mg/mL] | solubility (physchem; pH 4.7, aqueous buffer) [mg/mL] | solubility (physchem; pH 4.84, aqueous buffer) [mg/mL] | solubility (physchem; pH 5.87, aqueous buffer) [mg/mL] | solubility (physchem; pH 6.17, aqueous buffer) [mg/mL] | solubility (physchem; pH 6.7, aqueous buffer) [mg/mL] | elimination half-life [1]
CCCC(CCC)C(=O)O [Divalproex sodium, sodium hydrogen divalproate] | 1 | 2 | 3.4 | 21 | 36 | 200 | 
CCCC(CCC)C(=O)O [valproic acid, 2-propylpentanoic acid] |  |  |  |  |  |  | four and fourteen
